Data as given in US7569213B2, “Immunotherapeutic agent” (Stanford Rook Limited, priority 2004, dated 2009).
“Also recorded” adds a separate entry of the source.

System: allergen challenged allergic mice
Assay: Allergic pulmonary inflammation model (ovalbumin/alum sensitized mice, intratracheal ovalbumin challenge, BAL fluid analysis)
Assay type: in vivo, Balb/c female mice
Details: for total cellular infiltrate (cells recovered in the bronchoalveolar lavage fluid) / neutrophils and monocytes/macrophages at the site of inflammation (BAL fluid) / number of eosinophils recovered in the BAL fluid / IL-5 levels in the BAL fluid / IL-10 levels in the BAL fluid: ovalbumin/alum sensitized mice; for total cellular infiltrate (cells recovered in the bronchoalveolar lavage fluid): intratracheal ovalbumin challenge, compared to buffer-treated mice; for neutrophils and monocytes/macrophages at the site of inflammation (BAL fluid) / number of eosinophils recovered in the BAL fluid / IL-5 levels in the BAL fluid / IL-10 levels in the BAL fluid: ovalbumin challenge; for IL-5 levels in the BAL fluid / IL-10 levels in the BAL fluid: ELISA
Excerpt: This model is used below to evaluate the effect of the compounds of the invention and to carry out comparative tests.
The prevention protocol is designed to determine the ability of treatment to prevent the development of symptoms of allergic pulmonary inflammation in subsequently sensitized mice. The therapeutic protocol is designed to determine the ability of treatment to cure symptoms of allergic pulmonary inflammation in sensitized mice.
In the prevention protocol Balb/c female mice (7-8 weeks of age, 17-20 g in weight) are treated with saline or buffer—0.001% FFA albumin in saline (as positive control) or lipid fractions of mycobacteria (taken form the sample deposited at the National Collection of Type Cultures under deposit number NCTC 11659). Three weeks after treatment all mice are sensitized intraperitoneally with 10 μg ovalbumin (OVA) and Alum (a 100 μl preparation of Alum supplied by Serva-Alu-Gel-S suspension). Sensitization is repeated after twelve days. On day 19, mice are intratracheally challenged with OVA (0.5 μg in 50 μl saline). Intratracheal antigenic challenge is repeated two days later. Twenty-four or 48 hours after the last challenge, the experiment is terminated.
In the therapeutic protocol mice are sensitized with OVA and Alum on day 0 and 12. On day 21, mice are treated as appropriate. Mice are resensitized on days 42 and 54. On days 61 and 63, mice are challenged intratracheally with OVA and the experiment terminated 24 or 48 hours later.
In some experiments, a small number of mice from the positive control group are challenged intratracheally with saline alone to determine the background level of cells infiltrating the lungs of sensitized mice in the absence of an allergic episode (negative control).
A number of end points are routinely assessed. Mice are bled by cardiac puncture and blood collected for serum analysis. The lungs are lavaged three times with 0.3 ml of sterile RPMI containing Penicillin/Streptomycin. The lavage fluid is collected and recovered cells are counted. Fifty or 100 μl of lavage fluid is used for a cytospin, which is stained (Wright-Giemsa stain), fixed in methanol and used for the morphological identification of specific cell populations of interest (eosinophils, neutrophils and monocytes/macrophages). The remaining fluid is spun down and the supernatant stored for cytokine measurement by ELISA. Spleens are pooled per treatment groups, a single cell suspension of splenocytes is obtained and placed in culture with OVA for specific antigenic stimulation and with anti-CD3 for polyclonal T cell stimulation. Supernatants are collected and stored for cytokine measurement by ELISA.

| SMILES | total cellular infiltrate (cells recovered in the bronchoalveolar lavage fluid) | neutrophils and monocytes/macrophages at the site of inflammation (BAL fluid) | number of eosinophils recovered in the BAL fluid | IL-5 levels in the BAL fluid | IL-10 levels in the BAL fluid | total cellular infiltrate in the lungs (single dose as low as 1 μg (doses tested 5 μg, 1 μg, 0.1 μg)) |
| --- | --- | --- | --- | --- | --- | --- |
| CCCCC/C=C/CCCCCCCCC(=O)O [C16:1 10-11 trans] | reduction in the cellular infiltrate |  |  |  |  |  |
| CCCCC=CCCCCCCCCCC(=O)OCC(COC(=O)CCCCCCCCCC=CCCCC)OC(=O)CCCCCCCCCC=CCCCC (stereo not drawn) [C16:1 11-12] | failed to reduce |  |  |  |  |  |
| CCCCC/C=C\CCCCCCCCC(=O)O [SRP312f, hexadecenoic acid (10Z)] |  | did not result in neutrophilia or in an increase of monocytes or macrophages | significant reduction | reduced | increased |  |
| CCCCC/C=C\CCCCCCCCC(=O)OCC(COC(=O)CCCCCCCC/C=C\CCCCC)OC(=O)CCCCCCCC/C=C\CCCCC [SRP312t, tri-ester of 1,2,3-propanetriol and hexadecenoic acid (10Z)] | reduced the total cellular infiltrate; also recorded: greater reduction | did not result in neutrophilia or in an increase of monocytes or macrophages | significant reduction | reduced | increased | significantly reduce |
